Laboratory results taken from PubChem BioAssay (NCI).
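The compound was tested at five concentrations on cells cultured in 96-well plates, with a 48-hour exposure period. GI50 = concentration required for 50% inhibition of growth. At the TGI there is no net growth.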

Experiments:
Experiment in all cases: NCI-60 cell line screen, 48 h
786-0 renal = system: 786-0 renal
A498 renal = system: A498 renal
A549 NSCLC = system: A549 NSCLC
ACHN renal = system: ACHN renal
BT-549 breast = system: BT-549 breast
CAKI-1 renal = system: CAKI-1 renal
CCRF-CEM leukemia = system: CCRF-CEM leukemia
COLO 205 colon = system: COLO 205 colon
DU-145 prostate = system: DU-145 prostate
EKVX NSCLC = system: EKVX NSCLC
HCC-2998 colon = system: HCC-2998 colon
HCT-116 colon = system: HCT-116 colon
HCT-15 colon = system: HCT-15 colon
HL-60(TB) leukemia = system: HL-60(TB) leukemia
HOP-62 NSCLC = system: HOP-62 NSCLC
HOP-92 NSCLC = system: HOP-92 NSCLC
HS 578T breast = system: HS 578T breast
HT29 colon = system: HT29 colon
IGROV1 ovarian = system: IGROV1 ovarian
K-562 leukemia = system: K-562 leukemia
KM12 colon = system: KM12 colon
LOX IMVI melanoma = system: LOX IMVI melanoma
M14 melanoma = system: M14 melanoma
MALME-3M melanoma = system: MALME-3M melanoma
MCF7 breast = system: MCF7 breast
MDA-MB-231 breast = system: MDA-MB-231 breast
MDA-MB-435 = system: MDA-MB-435
MOLT-4 leukemia = system: MOLT-4 leukemia
NCI-H226 lung = system: NCI-H226 lung
NCI-H23 lung = system: NCI-H23 lung
NCI-H460 lung = system: NCI-H460 lung
NCI-H522 lung = system: NCI-H522 lung
NCI/ADR-RES ovarian = system: NCI/ADR-RES ovarian
OVCAR-3 ovarian = system: OVCAR-3 ovarian
OVCAR-4 ovarian = system: OVCAR-4 ovarian
OVCAR-5 ovarian = system: OVCAR-5 ovarian
OVCAR-8 ovarian = system: OVCAR-8 ovarian
PC-3 prostate = system: PC-3 prostate
RPMI-8226 leukemia = system: RPMI-8226 leukemia
RXF 393 renal = system: RXF 393 renal
SF-268 CNS = system: SF-268 CNS
SF-295 CNS = system: SF-295 CNS
SF-539 CNS = system: SF-539 CNS
SK-MEL-2 melanoma = system: SK-MEL-2 melanoma
SK-MEL-28 melanoma = system: SK-MEL-28 melanoma
SK-MEL-5 melanoma = system: SK-MEL-5 melanoma
SK-OV-3 ovarian = system: SK-OV-3 ovarian
SN12C renal = system: SN12C renal
SNB-19 CNS = system: SNB-19 CNS
SNB-75 CNS = system: SNB-75 CNS
SR leukemia = system: SR leukemia
SW-620 colon = system: SW-620 colon
T-47D breast = system: T-47D breast
TK-10 renal = system: TK-10 renal
U251 CNS = system: U251 CNS
UACC-257 melanoma = system: UACC-257 melanoma
UACC-62 melanoma = system: UACC-62 melanoma
UO-31 renal = system: UO-31 renal

`COc1ccc(C2C(C#N)=C(N)Oc3c2sc2c(C)cccc32)cc1` (stereo unspecified) gave a GI50 (786-0 renal) of 621 nM, a TGI (786-0 renal) of 14600 nM and a GI50 (A498 renal) of 199 nM. For the same molecule, the TGI (A498 renal) was 772 nM, the GI50 (A549 NSCLC) was 724 nM and the TGI (A549 NSCLC) was 21600 nM. It also gave a GI50 (ACHN renal) of 757 nM, a TGI (ACHN renal) of 14700 nM and a GI50 (BT-549 breast) of 956 nM. For the same molecule, the TGI (BT-549 breast) was 7830 nM, the GI50 (CAKI-1 renal) was 381 nM and the TGI (CAKI-1 renal) was 16700 nM. For the same molecule, the GI50 (CCRF-CEM leukemia) was 341 nM, the TGI (CCRF-CEM leukemia) was > 64800 nM and the GI50 (COLO 205 colon) was 933 nM. For the same molecule, the TGI (COLO 205 colon) was 8680 nM, the GI50 (DU-145 prostate) was 596 nM and the TGI (DU-145 prostate) was 18600 nM. The GI50 (EKVX NSCLC) was 677 nM, the TGI (EKVX NSCLC) was 21300 nM and the GI50 (HCC-2998 colon) was 1030 nM. It also gave a TGI (HCC-2998 colon) of 7390 nM, a GI50 (HCT-116 colon) of 362 nM and a TGI (HCT-116 colon) of 6960 nM. It also gave a GI50 (HCT-15 colon) of 408 nM, a TGI (HCT-15 colon) of 7320 nM and a GI50 (HL-60(TB) leukemia) of 230 nM. For the same molecule, the TGI (HL-60(TB) leukemia) was 1060 nM, the GI50 (HOP-62 NSCLC) was 544 nM and the TGI (HOP-62 NSCLC) was 20800 nM. The GI50 (HOP-92 NSCLC) was 1130 nM, the TGI (HOP-92 NSCLC) was 11100 nM and the GI50 (HS 578T breast) was 300 nM. For the same molecule, the TGI (HS 578T breast) was 2280 nM, the GI50 (HT29 colon) was 816 nM and the TGI (HT29 colon) was 12700 nM. For the same molecule, the GI50 (IGROV1 ovarian) was 449 nM, the TGI (IGROV1 ovarian) was 14500 nM and the GI50 (K-562 leukemia) was 119 nM. For the same molecule, the TGI (K-562 leukemia) was > 100000 nM, the GI50 (KM12 colon) was 460 nM and the TGI (KM12 colon) was 14500 nM. For the same molecule, the GI50 (LOX IMVI melanoma) was 592 nM, the TGI (LOX IMVI melanoma) was 10800 nM and the GI50 (M14 melanoma) was 304 nM. For the same molecule, the TGI (M14 melanoma) was 13400 nM, the GI50 (MALME-3M melanoma) was 431 nM and the TGI (MALME-3M melanoma) was 21000 nM. It also gave a GI50 (MCF7 breast) of 322 nM, a TGI (MCF7 breast) of 12200 nM and a GI50 (MDA-MB-231 breast) of 1220 nM. For the same molecule, the TGI (MDA-MB-231 breast) was 10600 nM, the GI50 (MDA-MB-435) was 188 nM and the TGI (MDA-MB-435) was 441 nM. The GI50 (MOLT-4 leukemia) was 524 nM, the TGI (MOLT-4 leukemia) was 9430 nM and the GI50 (NCI-H226 lung) was 590 nM. For the same molecule, the TGI (NCI-H226 lung) was 15800 nM, the GI50 (NCI-H23 lung) was 474 nM and the TGI (NCI-H23 lung) was 12800 nM. For the same molecule, the GI50 (NCI-H460 lung) was 384 nM, the TGI (NCI-H460 lung) was 10600 nM and the GI50 (NCI-H522 lung) was 369 nM. For the same molecule, the TGI (NCI-H522 lung) was 6010 nM, the GI50 (NCI/ADR-RES ovarian) was 332 nM and the TGI (NCI/ADR-RES ovarian) was 5750 nM. For the same molecule, the GI50 (OVCAR-3 ovarian) was 414 nM, the TGI (OVCAR-3 ovarian) was 12800 nM and the GI50 (OVCAR-4 ovarian) was 2240 nM. It also gave a TGI (OVCAR-4 ovarian) of 22500 nM, a GI50 (OVCAR-5 ovarian) of 636 nM and a TGI (OVCAR-5 ovarian) of 14200 nM. For the same molecule, the GI50 (OVCAR-8 ovarian) was 547 nM, the TGI (OVCAR-8 ovarian) was 17400 nM and the GI50 (PC-3 prostate) was 346 nM. It also gave a TGI (PC-3 prostate) of 13000 nM, a GI50 (RPMI-8226 leukemia) of 384 nM and a TGI (RPMI-8226 leukemia) of 5530 nM. It also gave a GI50 (RXF 393 renal) of 234 nM, a TGI (RXF 393 renal) of 628 nM and a GI50 (SF-268 CNS) of 1200 nM. For the same molecule, the TGI (SF-268 CNS) was 21600 nM, the GI50 (SF-295 CNS) was 293 nM and the TGI (SF-295 CNS) was 2400 nM. For the same molecule, the GI50 (SF-539 CNS) was 297 nM, the TGI (SF-539 CNS) was 1240 nM and the GI50 (SK-MEL-2 melanoma) was 3330 nM. The TGI (SK-MEL-2 melanoma) was 26500 nM, the GI50 (SK-MEL-28 melanoma) was 3830 nM and the TGI (SK-MEL-28 melanoma) was 21700 nM. For the same molecule, the GI50 (SK-MEL-5 melanoma) was 427 nM, the TGI (SK-MEL-5 melanoma) was 13200 nM and the GI50 (SK-OV-3 ovarian) was 613 nM. The TGI (SK-OV-3 ovarian) was 41700 nM, the GI50 (SN12C renal) was 578 nM and the TGI (SN12C renal) was 11300 nM. For the same molecule, the GI50 (SNB-19 CNS) was 520 nM, the TGI (SNB-19 CNS) was 15200 nM and the GI50 (SNB-75 CNS) was 221 nM. The TGI (SNB-75 CNS) was 709 nM, the GI50 (SR leukemia) was 215 nM and the TGI (SR leukemia) was 15000 nM. It also gave a GI50 (SW-620 colon) of 441 nM, a TGI (SW-620 colon) of 16200 nM and a GI50 (T-47D breast) of 552 nM. It also gave a TGI (T-47D breast) of 43700 nM, a GI50 (TK-10 renal) of 9490 nM and a TGI (TK-10 renal) of 34200 nM. The GI50 (U251 CNS) was 489 nM, the TGI (U251 CNS) was 16000 nM and the GI50 (UACC-257 melanoma) was 14300 nM. It also gave a TGI (UACC-257 melanoma) of 42100 nM, a GI50 (UACC-62 melanoma) of 375 nM and a TGI (UACC-62 melanoma) of 11900 nM. It also gave a GI50 (UO-31 renal) of 340 nM and a TGI (UO-31 renal) of 13500 nM.
